Measured values published in PMC6123711, “Conformational signatures in β-arrestin2 reveal natural biased agonism at a G-protein-coupled receptor” (Communications Biology, 2018).

Key:
[1] = tested on: Galr2–β-arrestin2–clathrin complex; experiment: β-arrestin2–clathrin interactions (NanoBit); assay type: cell-based, human; conditions: 30 μM cmpd101 (GRK2/3 inhibitor) pretreatment; 10 μM agonist
Source text: The interaction between β-arrestin2 and clathrin induced by the activation of Galr2 was examined using the NanoBit technology. We measured real-time association of the protein complex Galr2–β-arrestin2–clathrin. We constructed β-arrestin2 and clathrin subunit A tagged with LgBit or SmBit at the C or N termini and screened eight different plasmid combinations, out of which only one combination (β-arrestin2–LgBit:SmBit–clathrin) responded to ligand stimulation (Fig. 3, Supplementary Fig. 3). Before ligand stimulation, Galr2, β-arrestin2, and clathrin were not in close proximity and so the basal luminescence was very low. […] A time course experiment was initially performed to determine the time at which the maximal increase in luminescence occurred following agonist stimulation. All ligands except for Fmoc-dA4-dQ14 induced different fold increase in luminescence immediately after ligand treatment (Fig. 3b). […] Galanin- and Spexin-induced increases in luminescence were attenuated by pretreatment of cmpd101, a G-protein-coupled receptor kinase 2/3 (GRK2/3) inhibitor, indicating contribution of GRK2/3 in the formation of Galr2–β-arrestin2–clathrin complex (Fig. 3).
The arrows indicate the time when the cells were treated with different ligands. […] The results are expressed as mean ± s.e.m. of three experiments performed in triplicate. Each triplicate was averaged before calculating the s.e.m.
(§1) Quantification of bias between each pathway was performed using Galanin as a reference ligand. All incubations for the different signaling assays were performed in serum-free medium to prevent peptide degradation.
One day before transfection, cells were seeded in 96-well plates at a density of 2.5 × 10^4 cells per well. A mixture containing 35 ng β-arrestin construct containing the LgBit or SmBit, 35 ng clathrin subunit A containing one of the two domains of Nluc and 30 ng untagged receptor, and 0.2 μl Lipofectamine 2000 (Invitrogen) was prepared and added to each well. We followed the assay manufacturer’s instructions and tested eight β-arrestin-clathrin plasmid combinations. In only one plasmid combination we were able to observe luminescent signal and it was chosen for further experiments. At 24 h post transfection, medium was aspirated and replaced with 100 μl OPTIMEM at room temperature. After a 10-min incubation, 25 μl substrate (furimazine) was added and the luminescence was monitored once every minute for 10 min. Then, 10 μl ligand was added to each well and the luminescence values were recorded immediately and once every minute for 1 h (Synergy 2 Multi-Mode Microplate Reader BioTek).

Galr2 = Galr2 internalization assay based on HiBiT technology; assay type: cell-based, human; conditions: 30 μM Cmpd101 30 min; 25 μM PitStop 2 (clathrin) 15 min; 80 μM Dynasore (dynamin) 40 min; Galanin 30 min
Description: The HiBiT protein tagging system, like NanoBiT technology, consists of two subunits: the large fragment (LgBiT) with 156 amino acids and the small fragment of Nluc (SmBiT-High-affinity) with only 11 amino acids that has a very high affinity to LgBit. To quantify Galr2 at the cell surface, cells expressing Galr2 tagged with the SmBiT-High-affinity were treated with cell-impermeable LgBiT along with the Nluc substrate furimazine. SmBiT-High-affinity-Galr2 on the cell surface binds to LgBiT which produces a luminescent signal, while SmBiT-High-affinity-Galr2 inside the cells cannot bind to LgBiT (Fig. 4a).
Fig. 4 Internalization of Galr2. a Schematic representation of the internalization assay. […] Before ligand stimulation, cells were pretreated with 30 μM Cmpd101 (a GRK2/3 inhibitor) for 30 min, 25 μM PitStop 2 (a Clathrin inhibitor) for 15 min, and 80 μM Dynasore (a Dynamin inhibitor) for 40 min. […] Remaining cell surface receptors were determined by measuring the luminescent signal produced by the binding between LgBiT and the Galr2-SmBiT-High affinity. Each data point represents mean ± s. e. m. of two independent experiments performed in triplicate
as §1
Internalization assays were performed using the Nano-Glo HiBiT extracellular detection system acquired from Promega Corporation (Cat. No. N2421). The day before transfection, HEK293 cells were seeded in 96-well plates at a density of 2.5 × 10^4 cells per well. The following day, cells were transfected with a mixture prepared containing 0.5 ng of SmBiT-high-affinity-Galr2 construct and 0.2 μl Lipofectamine 2000 (Invitrogen) added to each well. […] Then luminescence values were recorded immediately (Synergy 2 Multi-Mode Microplate Reader BioTek). […]

[2] = tested on: luteinizing hormone (LH) secretion; conditions: cited from earlier work
Source text: G-protein-coupled receptors (GPCRs) are the largest family of cell surface receptors that communicate extracellular stimuli to the cell interior[1]. Biased ligands are of particular interest because they offer the possibility to design a novel class of therapeutic agents. In some GPCRs, biased ligands that preferentially activate G-protein-dependent signaling have therapeutic potential. […] Most descriptions of biased ag ...

| Compound | effect of pretreatment on Galanin- and Spexin-induced β-arrestin2–clathrin luminescence increase [1] | effect of inhibitor on Galanin-induced Galr2 internalization (Galr2) | LH secretion, rat [2] |
| --- | --- | --- | --- |
| Cn1c(CNc2cccc(C(=O)NCc3ccccc3C(F)(F)F)c2)nnc1-c1ccncc1 [cmpd101, reference compound] | attenuated | partially blocked | – |
| galanin-like peptide: galanin-like peptide, a Galanin paralog (APAHRGRGGWTLNSAGYLLGPVLHLPQMGDQDGKRETALEILDLWKAIDGLPYSHPPQPS; Galanin-like peptide; UniProt Q9UBC7 25-84, looked up) | – | – | stimulates luteinizing hormone (LH) secretion |
